These are literature values, as cited in PMC6222829, “Synthesis, Molecular Docking and Anticancer Activity of Diflunisal Derivatives as Cyclooxygenase Enzyme Inhibitors” (Molecules : A Journal of Synthetic Chemistry and Natural …, 2018).

pIC50: −log10 of the molar value.

Design in all cases: method as in PMID 20658169, PMID 26580554
Conditions in all cases: literature value ref 42,43; cited from earlier work

The subject of data set [1] is HCT116 cell line.
For data set [2], the system named is PC-3 cell line.
Data set [3] has as its system T47D cell line.

The pIC50 is −log10 of the IC50, conventionally taken in molar units. On to `N.N.[Cl][Pt][Cl]` [Cisplatin], for which the pIC50 in data set [1] is 5.90; in data set [2] it was 4.40; in data set [3] it was 6.08.
